Source: patent US20240043407A1, “CRYSTALLINE FORM I OF MELANOCORTIN RECEPTOR AGONIST COMPOUND AND METHOD FOR PREPARING SAME” (LG CHEM, LTD., priority 2020, published 2024)

Assays:
Type in all cases: physicochemical
[1] = Dynamic vapor sorption (DVS) analysis
Procedure: DVS was measured using automated gravimetric vapor sorption analyzer equipped with Cahn D200 ultra-microbalance (DVS Intrinsic apparatus, Surface Measurement System Ltd., UK). First, a sample of 10-20 mg was put in a sample pan and hung on a hang-down wire, and measurement was started when the weight and humidity reached equilibrium. In one cycle, relative humidity was increased from 0% to 90% and then dropped back to 0%. Two cycles were carried out. The experiment was carried out in a way that the relative humidity was increased at 10% increment using a dm/dt method. The experiment was carried out at room temperature (25° C.)

[2] = Thermogravimetric analysis (TGA)
Procedure: The TGA was measured using Mettler Toledo TGA/DSC 1 module. About 4-8 mg of the sample is weighed and put into a 100 μL Al crucible (flat-bottomed aluminum crucibles). Then, TGA measurement is performed while the sample is heated from 30° C. to 350° C. at a rate of 10° C./min. During the measurement, nitrogen gas is supplied to the inside of the instrument at a rate of 80 mL/min to prevent the inflow of oxygen and other gases. Data collection and evaluation were performed using the software STARe.

[3] = Stability assessment by HPLC after storage; conditions: for HPLC content, Accelerated condition (40° C./75% RH): open state; for HPLC content, Accelerated condition (40° C./75% RH) / HPLC content, Harsh condition (80° C.): in % (unit assumed); for HPLC content, Harsh condition (80° C.): sealed state, oven 80° C.
Procedure: About 10-30 mg of the sample was stored for 4 weeks in an open state under the accelerated condition (40° C., 75% RH) or in a sealed state under the harsh condition in an oven at 80° C. [table]

- total weight gain observed between 0-90% RH ([1]; DVS, 25° C., 0-90% RH, two cycles): 0.2 % w/w
- physical change after DVS (XRPD pattern compared with initial compound) ([1]; XRPD after DVS analysis): no physical change occurred
- temperature up to which thermally stable ([2]; TGA, error of ±5° C.): up to 270 °C
- chemical stability ([3]; accelerated (40° C., 75% RH) and harsh (80° C.) condition, 4 weeks): showed chemical stability for 4 weeks
- decrease in the content until week 4 ([3]; accelerated condition (40° C., 75% RH) and closed state (harsh condition, 80° C.), until week 4): about 1.3%
- decrease in the content under the accelerated condition ([3]; accelerated condition, for 4 weeks): less than 1%
- HPLC content, Initial ([3]; initial, before storage): 97.8%
- HPLC content, Accelerated condition (40° C./75% RH) ([3]; Day 3): 97.51
- HPLC content, Accelerated condition (40° C./75% RH) ([3]; Week 1): 96.64
- HPLC content, Accelerated condition (40° C./75% RH) ([3]; Week 2): 97.73
- HPLC content, Accelerated condition (40° C./75% RH) ([3]; Week 4): 97.47
- HPLC content, Harsh condition (80° C.) ([3]; Day 3): 97.46
- HPLC content, Harsh condition (80° C.) ([3]; Week 1): 97.34
- HPLC content, Harsh condition (80° C.) ([3]; Week 2): 96.94
- HPLC content, Harsh condition (80° C.) ([3]; Week 4): 96.47
SMILES: CC(C)C(=O)N([C@H]1C[C@@H](C(=O)N2CCOCC2)N(C(=O)[C@@H]2CN(C(C)(C)C)C[C@H]2c2ccc(Cl)cc2)C1)[C@H]1CC[C@@H](C)CC1 [Example 1, N-((3S,5S)-1-((3S,4R)-1-(tert-butyl)-4-(4-chlorophenyl)pyrrolidine-3-carbonyl)-5-(morpholine-4-carbonyl)pyrrolidin-3-yl)-N-((1s,4R)-4-methylcyclohexyl)isobutyramide]
- weight loss in TGA before degradation ([2]; heated from 30° C. to 350° C. at 10° C./min): no weight loss was observed before degradation
